# Data: ChEMBL document CHEMBL1201862, “PubChem BioAssay data set” (2004)
# Activity calls are given as the source filed them.
# How the values were obtained:
# [1] = growth inhibition of yeast DHODH-expressing 3D7 parasites – SYBR Green, dry powder samples, dose response (AID 1159570); assay type: functional, cell-based;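 also: parasite growth measured after 72 hours of compound exposure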
# [2] = growth inhibition of PfATP4-mutant resistant parasites – NITD609-resistant line, SYBR Green, dry powder, dose response (AID 1159571); assay type: functional, cell-based;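 also: parasites synchronized at ring stage by sorbitol before testing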
# [3] = Dd2 malaria parasite growth inhibition potency – SYBR Green, dry powder samples, dose response (AID 1159566); assay type: functional, cell-based;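 also: potency for growth inhibition with lower SYBR green DNA signal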
# [4] = toxicity to human HepG2 hepatoma cells – cell-based, plate reader, dry powder samples, cytotoxicity control, dose response (AID 1159569); assay type: functional;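 also: inhibitor potency with signal falling toward the positive control level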
# [5] = P. falciparum Dd2 growth inhibitors, dose response, SYBR Green, cherry-picked samples (AID 1159567); assay type: functional, cell-based
# [6] = molecular target: T1, Cytochrome P450 1A2 (Homo sapiens, UniProt P05177);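 also: PubChem cytochrome P450 panel assay, CYP1A2 panel member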
# T1 sequence (P05177 whole entry): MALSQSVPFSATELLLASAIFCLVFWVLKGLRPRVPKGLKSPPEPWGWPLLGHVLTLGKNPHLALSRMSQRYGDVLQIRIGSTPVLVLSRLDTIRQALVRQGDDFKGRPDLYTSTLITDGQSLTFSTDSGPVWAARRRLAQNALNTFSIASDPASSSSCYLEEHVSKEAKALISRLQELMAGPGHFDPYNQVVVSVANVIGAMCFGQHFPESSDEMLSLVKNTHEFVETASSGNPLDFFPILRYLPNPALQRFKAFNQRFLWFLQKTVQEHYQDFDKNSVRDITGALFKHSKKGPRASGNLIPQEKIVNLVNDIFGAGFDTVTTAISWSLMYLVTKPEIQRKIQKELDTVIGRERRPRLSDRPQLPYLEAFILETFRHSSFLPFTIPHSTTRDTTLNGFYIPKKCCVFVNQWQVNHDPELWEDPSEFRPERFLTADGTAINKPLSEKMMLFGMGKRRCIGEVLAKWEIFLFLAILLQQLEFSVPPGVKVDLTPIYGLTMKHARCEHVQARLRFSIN
# [7] = molecular target: Kallikrein-7 (Homo sapiens, UniProt P49862); assay: Fluorescence Intensity-based biochemical primary high throughput dose response assay to identify activators of kallikrein-7 (K7) zymogen.
# Chain of Kallikrein-7 (P49862 whole entry): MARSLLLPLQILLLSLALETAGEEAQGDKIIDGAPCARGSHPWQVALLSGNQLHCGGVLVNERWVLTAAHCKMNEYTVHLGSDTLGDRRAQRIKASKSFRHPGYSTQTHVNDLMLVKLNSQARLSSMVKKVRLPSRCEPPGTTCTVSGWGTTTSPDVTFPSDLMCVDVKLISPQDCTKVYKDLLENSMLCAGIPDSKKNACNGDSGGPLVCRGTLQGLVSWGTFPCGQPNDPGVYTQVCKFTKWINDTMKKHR
# [8] = system: HEK293; assay: EBV LMP1 TES2 canonical NF-kB signalling blockers – cell-based, HEK293, luciferase, cherry-pick, dose response (AID 588343); assay type: functional; settings: Homo sapiens
# [9] = rise of 4N DNA cells, HeLa – IC50, dose response (AID 1117351); assay type: functional, cell-based
# [10] = molecular target: Voltage-gated inwardly rectifying potassium channel KCNH2 (Homo sapiens, UniProt Q12809); settings: Potency;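 also: confirmatory quantitative high-throughput screen measuring inhibition of hERG channel activity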
# Chain of Voltage-gated inwardly rectifying potassium channel KCNH2 (Q12809 whole entry): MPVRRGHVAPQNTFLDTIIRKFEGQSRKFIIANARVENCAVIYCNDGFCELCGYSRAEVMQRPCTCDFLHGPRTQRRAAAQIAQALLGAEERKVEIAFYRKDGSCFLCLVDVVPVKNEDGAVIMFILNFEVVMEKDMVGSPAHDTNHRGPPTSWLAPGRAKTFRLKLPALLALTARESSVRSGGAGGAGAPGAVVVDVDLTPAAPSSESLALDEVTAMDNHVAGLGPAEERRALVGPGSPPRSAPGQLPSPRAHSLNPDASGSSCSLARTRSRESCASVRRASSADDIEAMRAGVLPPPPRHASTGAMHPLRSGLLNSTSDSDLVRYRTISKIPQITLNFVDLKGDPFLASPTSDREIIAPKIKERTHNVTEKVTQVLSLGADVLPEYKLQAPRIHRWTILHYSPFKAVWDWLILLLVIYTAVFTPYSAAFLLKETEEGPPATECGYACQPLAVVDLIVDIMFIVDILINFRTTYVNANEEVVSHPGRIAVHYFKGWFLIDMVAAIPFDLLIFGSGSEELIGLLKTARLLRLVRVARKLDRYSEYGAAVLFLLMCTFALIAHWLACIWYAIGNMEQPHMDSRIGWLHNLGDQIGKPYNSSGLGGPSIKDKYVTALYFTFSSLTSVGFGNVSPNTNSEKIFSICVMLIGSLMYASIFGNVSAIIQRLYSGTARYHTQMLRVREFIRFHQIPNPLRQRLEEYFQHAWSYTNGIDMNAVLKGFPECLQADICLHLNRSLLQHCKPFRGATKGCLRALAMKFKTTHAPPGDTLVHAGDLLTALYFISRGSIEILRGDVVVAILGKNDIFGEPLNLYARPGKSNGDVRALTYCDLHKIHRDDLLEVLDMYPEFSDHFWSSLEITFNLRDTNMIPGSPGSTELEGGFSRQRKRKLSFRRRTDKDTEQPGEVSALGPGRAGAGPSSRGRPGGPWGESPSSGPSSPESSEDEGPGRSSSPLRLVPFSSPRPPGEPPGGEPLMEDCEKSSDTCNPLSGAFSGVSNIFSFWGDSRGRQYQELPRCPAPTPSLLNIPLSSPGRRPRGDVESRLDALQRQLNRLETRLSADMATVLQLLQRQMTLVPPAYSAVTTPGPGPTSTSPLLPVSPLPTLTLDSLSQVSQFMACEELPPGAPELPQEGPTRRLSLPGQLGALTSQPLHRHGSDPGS
# [11] = rise of 2N DNA cells, HeLa – IC50, dose response (AID 1117349); assay type: functional, cell-based
# [12] = molecular target: Paired box protein Pax-8 (Homo sapiens, UniProt Q06710); assay: PAX8 transcriptional activity inhibition in RMG-I – RMG-I cells, luciferase, cherry-pick, dose response (AID 687027); assay type: functional, cell-based;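 also: luciferase reporter driven by Pax8 target thyroperoxidase promoter measured by SteadyGlo luminescence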
# Chain of Paired box protein Pax-8 (Q06710 whole entry): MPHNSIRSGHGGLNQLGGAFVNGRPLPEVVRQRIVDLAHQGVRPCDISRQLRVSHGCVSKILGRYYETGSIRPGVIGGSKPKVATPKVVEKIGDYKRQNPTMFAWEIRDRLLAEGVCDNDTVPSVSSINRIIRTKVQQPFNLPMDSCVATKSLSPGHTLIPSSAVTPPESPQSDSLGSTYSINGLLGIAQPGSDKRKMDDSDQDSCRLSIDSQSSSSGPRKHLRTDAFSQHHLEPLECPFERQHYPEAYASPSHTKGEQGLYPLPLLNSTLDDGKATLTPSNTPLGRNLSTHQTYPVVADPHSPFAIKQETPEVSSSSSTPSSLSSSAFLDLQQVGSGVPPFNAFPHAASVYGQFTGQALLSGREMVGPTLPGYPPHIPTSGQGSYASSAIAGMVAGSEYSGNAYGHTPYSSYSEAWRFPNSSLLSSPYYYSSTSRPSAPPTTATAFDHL
# [13] = molecular target: T2, Caspase-3 (Homo sapiens, UniProt P42574); assay type: functional;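 also: Dose-response selectivity test against caspase-3 for candidate inhibitors of sentrin-specific proteases (SENPs)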
# T2 sequence (P42574 whole entry): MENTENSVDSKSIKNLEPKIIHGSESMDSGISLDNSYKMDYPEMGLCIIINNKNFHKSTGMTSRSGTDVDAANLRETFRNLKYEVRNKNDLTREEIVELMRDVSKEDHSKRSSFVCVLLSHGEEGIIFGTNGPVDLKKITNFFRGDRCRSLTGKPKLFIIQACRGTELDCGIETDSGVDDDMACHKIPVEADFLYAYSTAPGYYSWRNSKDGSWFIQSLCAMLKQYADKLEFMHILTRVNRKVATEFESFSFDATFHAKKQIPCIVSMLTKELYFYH
# [14] = Luminescence-based cell-based high throughput dose response assay to identify activators of the DAF-12 from the parasite S. stercoralis (ssDAF-12).; assay type: functional
# [15] = molecular target: T3, Sentrin-specific protease 6 (Homo sapiens, UniProt Q9GZR1); assay type: functional;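 also: Luminescence-based dose-response confirmatory assay of SENP6 inhibition, following up an ultra-high-throughput screen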
# T3 sequence (Q9GZR1 whole entry): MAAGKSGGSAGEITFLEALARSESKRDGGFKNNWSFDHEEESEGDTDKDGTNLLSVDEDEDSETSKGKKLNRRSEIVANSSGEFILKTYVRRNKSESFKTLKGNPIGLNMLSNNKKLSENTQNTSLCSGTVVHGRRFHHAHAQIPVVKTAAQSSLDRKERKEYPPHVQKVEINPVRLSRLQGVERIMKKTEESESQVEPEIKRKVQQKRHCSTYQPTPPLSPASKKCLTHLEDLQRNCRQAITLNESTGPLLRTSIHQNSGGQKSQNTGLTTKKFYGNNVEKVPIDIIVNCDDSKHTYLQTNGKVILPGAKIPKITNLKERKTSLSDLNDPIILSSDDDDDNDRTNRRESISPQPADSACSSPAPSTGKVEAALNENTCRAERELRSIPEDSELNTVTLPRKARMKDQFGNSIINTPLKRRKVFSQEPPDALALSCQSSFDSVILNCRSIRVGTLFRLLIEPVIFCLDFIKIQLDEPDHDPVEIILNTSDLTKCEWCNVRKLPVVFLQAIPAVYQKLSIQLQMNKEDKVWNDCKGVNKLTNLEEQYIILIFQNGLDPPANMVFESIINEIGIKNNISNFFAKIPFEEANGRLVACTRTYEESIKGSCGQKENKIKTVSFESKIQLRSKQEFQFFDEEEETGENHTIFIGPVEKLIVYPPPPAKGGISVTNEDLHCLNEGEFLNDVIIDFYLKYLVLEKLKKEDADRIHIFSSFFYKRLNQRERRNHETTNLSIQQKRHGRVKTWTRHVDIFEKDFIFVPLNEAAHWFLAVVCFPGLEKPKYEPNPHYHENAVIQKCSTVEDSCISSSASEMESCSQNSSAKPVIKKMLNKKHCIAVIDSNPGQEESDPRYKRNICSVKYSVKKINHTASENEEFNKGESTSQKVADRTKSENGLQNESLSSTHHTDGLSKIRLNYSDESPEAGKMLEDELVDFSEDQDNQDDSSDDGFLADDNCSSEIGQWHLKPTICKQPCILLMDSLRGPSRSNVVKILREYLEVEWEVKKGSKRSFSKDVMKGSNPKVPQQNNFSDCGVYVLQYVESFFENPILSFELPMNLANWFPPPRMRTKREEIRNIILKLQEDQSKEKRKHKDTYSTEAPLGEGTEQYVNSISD
# [16] = molecular target: T4, Sentrin-specific protease 8 (Homo sapiens, UniProt Q96LD8); assay type: functional;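 also: luminescence read-out of SENP8 inhibition, dose-response confirmation following an ultra-high-throughput screen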
# T4 sequence (Q96LD8 whole entry): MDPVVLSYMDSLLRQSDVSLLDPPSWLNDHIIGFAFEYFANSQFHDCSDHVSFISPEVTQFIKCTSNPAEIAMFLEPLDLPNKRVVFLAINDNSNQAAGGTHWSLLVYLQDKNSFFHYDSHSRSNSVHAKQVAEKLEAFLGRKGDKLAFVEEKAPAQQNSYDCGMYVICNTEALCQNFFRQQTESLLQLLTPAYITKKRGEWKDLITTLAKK
# [17] = molecular target: T5, Oxysterols receptor LXR-beta (Homo sapiens, UniProt P55055); assay: LXR agonists, Gal4 luciferase reporter, dose response, counter-screen for ssDAF-12 agonist project, cell-based, luminescence, HEK293, S. stercoralis campaign (AID 720737); assay type: functional; settings: read-out: IC50 (the source's name)
# T5 sequence (P55055 whole entry): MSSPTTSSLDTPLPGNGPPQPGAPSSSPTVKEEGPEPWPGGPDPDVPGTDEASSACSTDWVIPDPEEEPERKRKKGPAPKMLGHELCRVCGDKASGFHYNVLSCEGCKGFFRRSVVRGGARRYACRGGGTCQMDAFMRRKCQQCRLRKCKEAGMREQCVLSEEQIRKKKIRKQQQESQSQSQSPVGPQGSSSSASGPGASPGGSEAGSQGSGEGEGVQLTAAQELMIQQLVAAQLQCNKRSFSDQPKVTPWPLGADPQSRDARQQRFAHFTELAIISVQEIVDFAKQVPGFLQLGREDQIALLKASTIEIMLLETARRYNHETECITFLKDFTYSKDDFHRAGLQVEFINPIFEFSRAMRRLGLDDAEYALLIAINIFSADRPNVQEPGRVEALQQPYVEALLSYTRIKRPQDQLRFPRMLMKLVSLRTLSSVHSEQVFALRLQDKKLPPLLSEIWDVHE
# [18] = molecular target: T6, Sentrin-specific protease 7 (Homo sapiens, UniProt Q9BQF6); assay type: functional;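 also: Luminescence-based dose-response confirmation of ultra-high-throughput screening hits, measuring inhibition of SENP7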
# T6 sequence (Q9BQF6 whole entry): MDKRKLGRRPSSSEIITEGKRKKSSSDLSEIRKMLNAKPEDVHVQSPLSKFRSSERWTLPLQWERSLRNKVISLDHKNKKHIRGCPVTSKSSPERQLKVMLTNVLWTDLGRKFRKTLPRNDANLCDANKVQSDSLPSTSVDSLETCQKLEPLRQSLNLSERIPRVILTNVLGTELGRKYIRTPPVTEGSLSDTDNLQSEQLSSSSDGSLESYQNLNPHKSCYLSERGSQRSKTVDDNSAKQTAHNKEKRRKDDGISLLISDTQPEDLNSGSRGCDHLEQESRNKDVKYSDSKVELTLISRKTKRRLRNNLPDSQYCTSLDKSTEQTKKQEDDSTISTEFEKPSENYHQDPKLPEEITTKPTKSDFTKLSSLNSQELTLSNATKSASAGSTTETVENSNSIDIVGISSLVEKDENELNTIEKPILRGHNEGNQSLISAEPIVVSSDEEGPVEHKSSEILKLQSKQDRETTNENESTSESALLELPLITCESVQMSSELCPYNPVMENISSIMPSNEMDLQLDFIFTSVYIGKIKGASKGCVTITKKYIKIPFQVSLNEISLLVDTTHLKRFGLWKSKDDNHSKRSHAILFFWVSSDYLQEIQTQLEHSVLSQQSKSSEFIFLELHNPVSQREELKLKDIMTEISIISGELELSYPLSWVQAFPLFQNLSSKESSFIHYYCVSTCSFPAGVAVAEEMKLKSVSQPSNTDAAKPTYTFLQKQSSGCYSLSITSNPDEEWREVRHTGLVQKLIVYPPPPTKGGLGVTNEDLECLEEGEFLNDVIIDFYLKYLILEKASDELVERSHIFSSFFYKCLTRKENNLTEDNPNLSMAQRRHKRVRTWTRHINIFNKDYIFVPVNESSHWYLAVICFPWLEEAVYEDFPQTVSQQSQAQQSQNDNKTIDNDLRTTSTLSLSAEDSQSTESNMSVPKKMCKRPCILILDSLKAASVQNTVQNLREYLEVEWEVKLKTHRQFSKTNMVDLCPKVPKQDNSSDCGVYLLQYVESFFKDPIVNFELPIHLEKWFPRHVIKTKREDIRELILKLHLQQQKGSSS
# [19] = molecular target: T7, Aminopeptidase N (Plasmodium falciparum FcB1/Columbia, UniProt O96935); assay: malaria alanyl aminopeptidase activity blockers – biochemical, fluorogenic H-Leu-NHMec substrate, 1536-well (AID 1445); parameters: species or system Plasmodium falciparum 3D7, 3D7
# T7 sequence (O96935 whole entry): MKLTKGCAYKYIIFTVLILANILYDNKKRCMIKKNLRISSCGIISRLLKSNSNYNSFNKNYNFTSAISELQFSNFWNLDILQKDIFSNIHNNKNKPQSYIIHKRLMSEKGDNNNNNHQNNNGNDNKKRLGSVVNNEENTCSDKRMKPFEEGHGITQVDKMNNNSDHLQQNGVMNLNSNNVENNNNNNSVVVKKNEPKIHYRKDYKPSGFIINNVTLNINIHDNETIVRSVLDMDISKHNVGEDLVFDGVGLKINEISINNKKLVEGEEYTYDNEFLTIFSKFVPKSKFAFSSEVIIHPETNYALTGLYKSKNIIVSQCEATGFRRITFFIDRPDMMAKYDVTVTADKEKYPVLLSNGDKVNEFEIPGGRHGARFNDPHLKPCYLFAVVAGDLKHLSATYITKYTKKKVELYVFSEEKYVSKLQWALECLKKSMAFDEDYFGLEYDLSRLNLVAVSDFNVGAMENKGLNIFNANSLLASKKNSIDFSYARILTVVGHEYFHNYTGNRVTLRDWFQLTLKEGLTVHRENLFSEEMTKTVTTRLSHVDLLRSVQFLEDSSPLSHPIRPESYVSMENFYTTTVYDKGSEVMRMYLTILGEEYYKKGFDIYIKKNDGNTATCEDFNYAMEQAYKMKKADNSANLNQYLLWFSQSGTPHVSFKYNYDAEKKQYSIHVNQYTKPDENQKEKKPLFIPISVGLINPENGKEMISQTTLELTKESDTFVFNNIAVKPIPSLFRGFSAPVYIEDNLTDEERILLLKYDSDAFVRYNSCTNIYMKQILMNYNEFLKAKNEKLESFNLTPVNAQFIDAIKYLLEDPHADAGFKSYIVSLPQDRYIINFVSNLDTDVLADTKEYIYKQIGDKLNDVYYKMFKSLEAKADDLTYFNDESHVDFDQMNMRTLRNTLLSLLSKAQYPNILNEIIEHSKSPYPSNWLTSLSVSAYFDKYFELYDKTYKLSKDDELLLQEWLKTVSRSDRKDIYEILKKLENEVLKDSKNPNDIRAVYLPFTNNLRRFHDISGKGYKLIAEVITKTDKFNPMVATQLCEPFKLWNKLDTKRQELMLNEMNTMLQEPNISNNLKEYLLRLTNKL
# [20] = molecular target: Sphingosine 1-phosphate receptor 2 (Homo sapiens, UniProt O95136); assay: Dose Response Cell Based Assay for Agonists of the S1P2 Receptor. [Related pubchem assays: 729, 736, 843 ]; assay type: functional
# Chain of Sphingosine 1-phosphate receptor 2 (O95136 whole entry): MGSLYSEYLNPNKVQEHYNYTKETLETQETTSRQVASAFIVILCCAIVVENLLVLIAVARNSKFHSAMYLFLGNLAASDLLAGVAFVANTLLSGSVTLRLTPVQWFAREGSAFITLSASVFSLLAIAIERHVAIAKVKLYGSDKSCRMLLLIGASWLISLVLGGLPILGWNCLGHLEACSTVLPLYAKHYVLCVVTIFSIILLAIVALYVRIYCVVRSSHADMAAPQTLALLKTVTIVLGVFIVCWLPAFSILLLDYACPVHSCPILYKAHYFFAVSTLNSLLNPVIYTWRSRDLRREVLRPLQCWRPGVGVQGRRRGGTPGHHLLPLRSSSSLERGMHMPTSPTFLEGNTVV
compound,measurement,setting,value
Cc1ccc(OC(=O)N(C)C[C@H]2OCc3ccccc3-c3c(n(C)c4ccccc34)C(=O)N([C@H](C)CO)C[C@@H]2C)cc1,AC50,[1],1.72 µM (active)
same,AC50,[2],1.96 µM (active)
same,AC50,[3],1.71 µM (active)
same,AC50,[4],22.9 µM (active)
same,AC50,[5],2.53 µM (active)
CCC(C)C(NS(=O)(=O)c1ccc(C)cc1)C(=O)Oc1ccc2c3c(c(=O)oc2c1)CCC3 (stereo unspecified),AC50,[6],11.2 µM (inconclusive)
same,EC50,[7],> 69.5 µM (inactive)
N[C@@H](Cc1ccc(N(CCCl)CCCl)cc1)C(=O)O,AC50,[8],10.3 µM (active)
same,IC50,[9],5.36 µM (inactive)
same,AC50,[10],15.8 µM (inconclusive)
same,IC50,[11],2.26 µM (active)
C[C@H](CO)N1C[C@H](C)[C@H](CN(C)S(=O)(=O)c2cccc(F)c2)OCc2ccccc2-c2c(n(C)c3ccccc23)C1=O,AC50,[1],1.6 µM (active)
same,AC50,[2],0.62 µM (active)
same,AC50,[3],0.722 µM (active)
same,AC50,[12],11.3 µM (active)
same,AC50,[4],31.5 µM (active)
same,AC50,[5],2.07 µM (active)
Cc1ccc(NC(=O)c2oc3ccccc3c2C)nc1,IC50,[13],25.8 µM (active)
same,IC50,[14],> 67.5 µM (inactive)
same,IC50,[15],85.3 µM (active)
same,IC50,[16],> 100 µM (inactive)
same,EC50,[17],> 67.5 µM (inactive)
same,IC50,[18],7.35 µM (active)
CCN(CC)CCCNc1oc(/C=C/c2ccccc2)nc1C#N,EC50,[7],> 69.5 µM (inactive)
same,IC50,[19],61 µM (active)
CCOC(=O)c1cc2ccc(OC)c(OC)c2c(=O)s1,EC50,[20],> 50 µM (not active)
